Data: patent US20240327339A1, “COMPOSITIONS AND METHODS FOR TREATING AND PREVENTING VIRAL INFECTIONS” (priority 2021, published 2024)
In brackets after ≈: the same amount, converted by molar mass. Entries after “also recorded” stand apart in the source; their conditions may differ. Where two headings read alike, the source gives them in different places.

Assays:
[1] = test system: RSV A2; assay: In vitro probenecid inhibition assay, RSV A2 (plaque assay); assay type: cell-based, respiratory syncytial virus (RSV); conditions: for IC50 / IC90: human respiratory syncytial virus; for virus replication compared to control (DMSO only): Vero E6, HEp-2 and NHBE cells
[2] = test system: RSV B1; assay: In vitro probenecid inhibition assay, RSV B1 (plaque assay); assay type: cell-based, respiratory syncytial virus (RSV); conditions: for IC50 / IC90: human respiratory syncytial virus; for IC90: up to 100 μM; for virus replication compared to control (DMSO only): Vero E6, HEp-2 and NHBE cells
[3] = test system: Memphis-37; assay: In vitro probenecid inhibition assay, Memphis-37 (plaque assay); assay type: cell-based, human RSV strain A; conditions: for IC50 / IC90: human respiratory syncytial virus; for virus replication compared to control (DMSO only): Vero E6, HEp-2 and NHBE cells
[4] = test system: RSV A2; assay: In vivo inhibition study, BALB/c mouse model of RSV infection; set-up: species or system BALB/c mice; conditions: 2 or 200 mg/kg i.p., 24 h before or 24 h after infection, days 3, 5, 7 pi
[5] = test system: Mumps (Jones) virus; assay: Mumps assay in Vero-P cells; assay type: cell-based; conditions: MOI=0.1, FIG. 10
Description: (§1) Experiments Conducted in Vero-P Cells.

[6] = test system: Zika (MR766) virus; assay: Zika assay in Vero-P cells; assay type: cell-based; conditions: MOI=0.1, FIG. 11
Description: as §1

[7] = test system: influenza virus; assay: Influenza assays in A549 cells; assay type: cell-based
Protocol: Experiment Conducted in A549 Cells.
[…] with influenza virus (MOI=0.1) for 1 hour
The virus is plaqued in MDCK cells while studies are carried out in human respiratory epithelial cells.

[8] = test system: Measles virus; assay: Measles virus plaque assay; assay type: cell-based; conditions: HEp2 and Vero cells treated before infection; MOI=0.01; 72 hours
Protocol: Plate 4×10^4/well of Vero-E6 or Hep-2 cells to be 95-100% confluent the next day. The next day make fresh dilutions of Probenecid were made. From a stock concentration of 10 mM in 100% DMSO, dilutions were made with half DMSO and half DMEM with 4% BSA fraction. FBS inhibits some viruses. Media was decanted and dilutions of probenecid were added to cells. Controls: DMSO/Media mixture, Media with no Probenecid, Media with no virus. Probenecid dilutions were left on cells for 24 hrs. After 24 hrs, media was decanted and virus was added (MOI=0.01/well). Virus was diluted to MOI=0.01 per 100 uL with DMEM. Left virus inoculum on cells for 1 hr. After 1 hr, infection media was decanted and replaced with dilutions of Probenecid. For Immunostaining, plates were left for 24 hrs before fixing cells. For Plaque Assays, plates were left for 72 hrs before freezing at −80 C.
For plaque assays of probenecid treated cells, cells were treated with various concentrations of Probenecid before being infected with Measles virus (MOI=0.01). After 72 hours, cells were frozen until plaque assay. Plaque concentrations are recorded as log 10 PFU/mL.

[9] = test system: A/WSN/33 (H1N1); assay: A/WSN/33 (H1N1) IC50 (Perwitasari et al.); assay type: cell-based; conditions: Influenza A virus; converted from 0.5 nM
[10] = Preliminary virology data used for pediatric simulations; conditions: virus not stated
Protocol: Simulations were also conducted in pediatric subjects. Allometric scaling based on body weights used as an empirical approach to predict concentrations in pediatric subjects. 10 mg/kg qd, 10 mg/kg bid, 20 mg/kg qd, 20 mg/kg bid dose was simulated. IC50 from preliminary virology data is 1 nM.

[11] = test system: adenovirus serotype 5 (Ad5); assay: Ad5 infection of A549 cells; assay type: cell-based; conditions: only limited conditions tested
[12] = test system: SARS-CoV-2; conditions: 90% inhibition of COVID-19 viral replication; Investigator Brochure; read-out: IC90 level; cited from earlier work
[13] = test system: SARS-CoV-2; conditions: ten non-hospitalized patients, mild to moderate infection; 28 day; cited from earlier work
[14] = in vivo, cited from earlier work
[15] = test system: E. coli; assay: Killing of free bacteria
[16] = test system: Dengue Type 1 virus; assay: Dengue assay in Vero-P cells; conditions: MOI=0.1, FIG. 12
[17] = test system: SLC22A8 (OAT3) transcripts; assay: OAT3 expression in HEp-2 cells (qPCR); conditions: HEp-2 cells treated with IC90 of probenecid [7.2 uM] for 24 h
[18] = test system: SARS-CoV-2; assay: SARS-CoV-2 IC90 (Investigator Brochure); conditions: Severe acute respiratory syndrome coronavirus 2, read-out: IC90 level corrected for 95% protein binding
[19] = Vero C1008, Prophylaxis (24 h before infection), Vero E6 cells
[20] = Vero C1008, Treatment (24 h after infection), Vero E6 cells
[21] = Prophylaxis (24 h before infection), HEp-2 cells
[22] = Prophylaxis (24 h before infection), NHBE cells
[23] = Treatment (24 h after infection), HEp-2 cells
[24] = Treatment (24 h after infection), NHBE cells

CCCN(CCC)S(=O)(=O)c1ccc(C(=O)O)cc1 [Probenecid, 4-[(dipropylamino)sulfonyl] benzoic acid]
IC50 [1, 19]: 70 nM
IC90 [1, 19]: 630 nM
IC50 [1, 20]: 100 nM
IC90 [1, 20]: 2700 nM
IC50 [1, 21]: 800 nM
IC90 [1, 21]: 7200 nM
IC50 [1, 22]: 400 nM
IC90 [1, 22]: 3600 nM
IC50 [1, 23]: 1200 nM
IC90 [1, 23]: 10800 nM
IC50 [1, 24]: 300 nM
IC90 [1, 24]: 2700 nM
virus replication compared to control (DMSO only) ([1]; prophylaxis 24 h before RSV A2 infection, FIG. 1): significantly (**** p<0.0001) inhibited the virus replication
virus replication compared to control (DMSO only) ([1]; treated 24 h after RSV A2 infection, FIG. 2): significantly (**** p<0.0001) inhibited the virus replication
IC50 [2, 19]: 850 nM
IC90 [2, 19]: > 100000 nM
IC50 [2, 20]: 2000 nM
IC90 [2, 20]: > 100000 nM
IC50 [2, 21]: 800 nM
IC90 [2, 21]: > 100000 nM
IC50 [2, 22]: 800 nM
IC90 [2, 22]: > 100000 nM
IC50 [2, 23]: 900 nM
IC90 [2, 23]: > 100000 nM
IC50 [2, 24]: 1200 nM
IC90 [2, 24]: > 100000 nM
virus replication compared to control (DMSO only) ([2]; prophylaxis 24 h before RSV B1 infection, FIG. 3): significantly (**** p<0.0001) inhibited the virus replication
virus replication compared to control (DMSO only) ([2]; treated 24 h after RSV B1 infection, FIG. 4): significantly (**** p<0.0001) inhibited the virus replication
IC50 [3, 19]: 30 nM
IC90 [3, 19]: 270 nM
IC50 [3, 20]: 400 nM
IC90 [3, 20]: 3600 nM
IC50 [3, 21]: 40 nM
IC90 [3, 21]: 360 nM
IC50 [3, 22]: 160 nM
IC90 [3, 22]: 1440 nM
IC50 [3, 23]: 500 nM
IC90 [3, 23]: 4500 nM
IC50 [3, 24]: 200 nM
IC90 [3, 24]: 1800 nM
virus replication compared to control (DMSO only) ([3]; prophylaxis 24 h before Memphis-37 infection, FIG. 5): significantly (**** p<0.0001) inhibited the virus replication
virus replication compared to control (DMSO only) ([3]; treated 24 h after Memphis-37 infection, FIG. 6): significantly (**** p<0.0001) inhibited the virus replication
lung virus titers compared to control (PBS) ([4]; female BALB/c mice): significantly (p<0.0001) reduced lung virus titer; also recorded: significant (**** p<0.0001) reduction in lung viral titers
lung virus titers compared to control (PBS) ([4]; male BALB/c mice): significantly (p<0.0001) reduced lung virus titer; also recorded: significant (**** p<0.0001) reduction in lung viral titers
inhibition of virus replication [5]: picomolar levels of probenecid were effective at inhibiting virus replication
inhibition of virus replication [6]: picomolar levels of probenecid were effective at inhibiting virus replication
IC50 for flu [7]: in the picomolar range
plaque titers [8]: below the limit of detection
IC50 [9]: 0.000143 µg/mL (≈ 0.000501 µM)
IC50 [10]: 1 nM
effect on infection [11]: did not statistically significantly reduce infection
IC90 [12]: 364 nM
patient symptoms [13]: patient symptoms showed improvement
absorption ([14]; po): completely absorbed after oral administration
time to peak plasma concentration ([14]; po): 2 to 4 h
half life [14]: 6 to 12 h
half-life in plasma [14]: less than 5 hr to more than 8 hr
killing of bacteria [15]: did not kill bacteria
inhibition of virus replication [16]: picomolar levels of probenecid were effective at inhibiting virus replication
OAT3 Raw Ct Value [17]: undetectable levels of OAT3 transcripts; also recorded: No Ct
IC90 [18]: 2.08 µg/mL (≈ 7.29 µM)
